Data as given in ChEMBL document CHEMBL5725721, “Pyridazinone-amides derivatives” (2017).

Target: Interleukin-1 receptor-associated kinase 1 (Homo sapiens, UniProt P51617)
Test: IRAK1 Enzymatic Assay: IRAK1 is a human purified recombinant enzyme (His-TEV-IRAK1 (194-712)) In this assay, IRAK-1 hydrolyses ATP and autophosphorylates.Measurement of IRAK-1 inhibition is performed in streptavidin coated 384 well FlashPlate (PerkinElmer #SMP410A).His-TEV-IRAK-1 (15 ng/well), ATP (1 μM, [33P]ATP 0.25 μCi/well) and compounds in DMSO (range of concentrations from 20 μM to 1 nM) or controls (2% DMSO) are incubated for 3 hours at 30° C. in assay buffer: Hepes pH7.0 50 mM, Fatty acid-free BSA 0.1%, Dithiothreitol DTT 2 mM, MgCl2 10 mM, EGTA 0.5 mM, Triton-X-100 0.01%. Kinase reaction is stopped by addition of EDTA. Supernatant is discarded, plates are washed three times with 150 mM NaCl and radioactivity is then measured in a Microbeta Trilux reader.

Interleukin-1 receptor-associated kinase 1, sequence (P51617 whole entry): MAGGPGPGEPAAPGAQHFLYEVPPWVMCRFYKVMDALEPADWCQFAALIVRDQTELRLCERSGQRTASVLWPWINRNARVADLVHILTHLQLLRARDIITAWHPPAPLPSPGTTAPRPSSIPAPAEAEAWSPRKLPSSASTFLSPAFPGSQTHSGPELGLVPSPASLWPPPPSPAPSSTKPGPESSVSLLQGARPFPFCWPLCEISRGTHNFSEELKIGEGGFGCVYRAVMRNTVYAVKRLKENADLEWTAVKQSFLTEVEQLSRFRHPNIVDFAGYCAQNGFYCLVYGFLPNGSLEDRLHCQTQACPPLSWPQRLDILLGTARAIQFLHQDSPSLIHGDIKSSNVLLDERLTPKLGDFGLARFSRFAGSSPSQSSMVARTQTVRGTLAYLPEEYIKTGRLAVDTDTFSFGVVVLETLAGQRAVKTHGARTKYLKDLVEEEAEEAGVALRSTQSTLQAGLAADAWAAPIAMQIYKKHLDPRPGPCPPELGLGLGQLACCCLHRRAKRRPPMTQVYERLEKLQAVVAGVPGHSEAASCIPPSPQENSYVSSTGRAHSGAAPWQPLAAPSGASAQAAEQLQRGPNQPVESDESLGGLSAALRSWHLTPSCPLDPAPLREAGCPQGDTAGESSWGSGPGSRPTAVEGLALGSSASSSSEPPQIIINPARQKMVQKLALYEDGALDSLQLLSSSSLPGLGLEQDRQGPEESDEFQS

Cc1ccncc1-c1ccc(=O)n(Cc2cccc(C(=O)Nc3nc4ccccc4[nH]3)c2)n1
IC50: < 100 nM
